Source: patent publication US9140688B2, “Sperm staining and sorting methods” (INGURAN, LLC, priority 2011, dated 2015)

Legend:
[1] = test system: elk sperm; assay: Post thaw motility of bulk sorted elk sperm (Example 3); format: cell-based; conditions: 0 HR; RED TALP with 16 μL, Y6 with 14 μL Hoechst 33342
Method: (§1) Each of deer and elk were collected in the Tris-egg yolk catch fluid described as a catch media in Example 1, and shipped for sorting.
(§2) A portion of each of the deer and the elk were stained by the red food dye No. 40 treatment 40% with 16 μL Hoechst 33342 and the yellow food dye No. 6 treatment with 14 μL Hoechst 33342 as described in Example 1.
(§3) Samples were each bulk sorted with the same machine and parameters described in Example 1. Both sorted X and sorted Y sperm were collected into a single catch. The sorted samples were then frozen like those described in Example 1.
(§4) Frozen thawed samples were then tested for post thaw motilities and post thaw DNA fragmentation. Post thaw motilities were slightly higher in Elk sorted with a yellow quencher, while a more significant difference existed in progressive motility. In Table 10, post thaw DNA fragmentation in Elk can be seen at about double after 48 hours when red food dye No. 40 is compared to yellow food dye No. 6 as a dead quencher.

[2] = test system: deer sperm; assay: Post thaw motility of bulk sorted deer sperm (Example 3); format: cell-based; conditions: 0 HR; RED TALP with 16 μL, Y6 with 14 μL Hoechst 33342
Method: as §1, §2, §3, §4

Row | Structure (SMILES) | Post Thaw Motility Elk, Motile [1] | Post Thaw Motility Elk, Progressive [1] | Post Thaw Motility Deer, Motile [2] | Post Thaw Motility Deer, Progressive [2]
1 | COc1cc(S(=O)(=O)O)c(C)cc1N=Nc1c(O)ccc2cc(S(=O)(=O)O)ccc12 [Red 40, 6-hydroxy-5-[(2-methoxy-5-methyl-4-sulfophenyl)azo]-2-naphthalenesulfonic acid, reference compound] | 51.0 | 29.0 | 59.8 | 43.0
2 | O=S(=O)([O-])c1ccc(N=Nc2c(O)ccc3cc(S(=O)(=O)[O-])ccc23)cc1.[Na+].[Na+] [Yellow 6, Disodium 6-hydroxy-5-[(4-sulfophenyl)azo]-2-naphthalenesulfononate] | 55.5 | 38.0 | 67.5 | 53.2
